Assay results from PMC10283052, “Intranasal delivery of mitochondrial protein humanin rescues cell death and promotes mitochondrial function in Parkinson's disease” (Theranostics, 2023).
Entries after “also recorded” stand apart in the source; their conditions may differ.

Key:
SH-SY5Y cells [1] = experiment: Real-time qPCR of mitochondrial rRNA and humanin transcripts; format: cell-based, human; conditions: IMT1 co-treated with HN for 24 h, dose-dependent
Method: For real-time qPCR, total RNA was extracted using TRIzol reagent (Thermo Fisher Scientific). cDNA was synthesized using a cDNA synthesis kit (Bioneer Corporation), according to the manufacturer's protocol. The mRNA levels were analyzed in a LightCycler 96 (Roche, Basel, Switzerland) using SYBR Green I master mix and SensiFAST™ SYBR® No-ROX Kit (Bioline, Paris, France). B2M (beta-2-microglobulin) gene expression was used to normalize gene expression data. The primer sequences used in this experiment are in Table S2.

[2] = tested on: differentiated PC12 cells; experiment: Pathway inhibitors on HN effects in MPP+-challenged differentiated PC12 cells; format: cell-based, rat; conditions: for neuroprotective effect of HN against MPP+ neurotoxicity (MTT viability): inhibitor 2 h before HN 10 μM, then MPP+ 1 mM 24 h, MK2206 1 μM, wortmannin 1 μM, U0126 10 μM
Method: For neuronal differentiation of PC12 cells, the cells were grown in DMEM containing 1.5% horse serum, 1.5% FBS, 1% P/S, and 100 ng/mL nerve growth factor (NGF, Thermo Fisher Scientific) every 2 days. PC12 cells were differentiated for 7 days and used for subsequent experiments.
Mouse brain tissue samples and cells were homogenized in radioimmunoprecipitation assay (RIPA) buffer (Cell Signaling, Danvers, MA, USA) in the presence of a protease and phosphatase inhibitor cocktail (Thermo Fisher Scientific). The samples were sonicated on ice, and the supernatant was collected after centrifugation at 4°C at 10,000 g for 5 min. The protein samples were loaded and separated using Tris-glycine SDS-PAGE. To detect the HN peptide, the proteins were separated into three layers of tricine SDS-PAGE, as previously described. The separated proteins were transferred to nitrocellulose membranes (GenDEPOT, Barker, TX, USA). The membranes were blocked for 0.5 h, followed by incubation with appropriate primary antibodies overnight at 4°C. The primary antibodies used were as follows: anti-tyrosine hydroxylase (Cat # P40101, Pel-Freez Biologicals), anti-HN (Cat # RA19000, Neuromics), anti-β-actin (Cat # GTX109639, GeneTex, Irvine, CA, USA), and anti-GAPDH (Cat # AM4300, Thermo Fisher Scientific). After washing, the membranes were incubated with horseradish peroxidase-labeled secondary antibodies (Cell Signaling Technology) and visualized using enhanced chemiluminescence reagents (DoGen, Seoul, South Korea). The results were analyzed using the ImageJ densitometry system. In order to detect circulating humanin in human plasma samples, proteins were extracted by trichloroacetic acid (TCA) precipitation. Loading of an equal amount of protein was confirmed by Coomassie staining of plasma samples which were depleted of albumin by Minute™ Albumin Depletion Reagent (Invent Biotechnologies, Plymouth, MN, USA).
Following treatment with the aforementioned reagents, the cells were washed and treated with 3-(4,5-dimethylthiazol-2-yl)-2,5-diphenyl-tetrazolium bromide (MTT, Thermo Fisher Scientific). Briefly, the cells were seeded in a 96-well plate at a density of 5 × 10^3 cells/well. After 24 h, a neurotoxin 1-methyl-4-phenylpyridinium (MPP^+) (Sigma-Aldrich) was applied to induce toxicity in neuronal cells. Next, the cells were incubated with MTT for 4 h, and formazan crystals were solubilized using DMSO. Absorbance was measured using a multi-plate reader at a wavelength of 570 nm, and the viability of the cells was recorded as a percentage of the control.

SH-SY5Y cells [3] = experiment: FITC-HN immunofluorescence in cells; format: cell-based, human
Method: For HN treatment, HN was synthesized as per Fmoc-based SPPS at GL Biochem (Shanghai, China). The lyophilized synthesized HN peptide or HN peptide conjugated with fluorescein isothiocyanate (FITC-HN) was dissolved in Dimethyl sulfoxide (DMSO) and incubated at 37 ℃ with mild stirring (100 rpm) for 1 h to prepare a 10 mM stock solution. The stock solutions were kept at -20 ℃ until use.
For staining, the cells were seeded on PDL-coated glass slides and treated as indicated above. The samples were fixed using methanol and permeabilized using 0.1% Triton X-100 in PBS. […] Fluorescent images were captured at the Neuroscience Translational Research Solution Center (Busan, South Korea) using an LSM 700 confocal microscope (Zeiss, Jena, Germany). The mitochondrial network morphology was assessed using the FIJI/ImageJ software as described previously.

[4] = Brain delivery after intranasal FITC-HN; format: in vivo, mouse
Method: For intranasal HN treatment, the synthetic HN peptide was delivered according to a procedure reported by Capsoni et al. The synthetic HN peptide was diluted in ddH2O to a concentration of 0.1 and 5 mg/kg for mice (total volume of 40 μL) at 37 ℃ with mild stirring. The mice were held firmly in one hand in a supine position with their head at 90°. Synthetic HN was administered in the form of 5-μL drops over 20 min in alternating nostrils every 3 min. After administration, the heads of the mice were held in the same position to prevent loss of the applied solution from the nares.
To stain the mouse brain tissue samples, transcardial perfusion was performed using PBS and 4% paraformaldehyde in PBS. The brain and trigeminal ganglia were removed, post-fixed using 4% paraformaldehyde in PBS, and stored in a 30% sucrose solution at 4 ℃ until they sank. Coronal sections were prepared (thickness: 10 µm) using a sliding microtome. After blocking with 5% BSA, the samples were incubated with the appropriate primary antibody as mentioned above. […] To enhance immune signals in immunohistochemistry, a Vectastain Elite ABC Standard Kit (Vector Laboratories) was used, as per the manufacturer's instructions. The stained sections were scanned using a Pannormic MIDI scanner (3[…], Budapest, Hungary) at the Neuroscience Translational Research Solution Center. Unbiased stereological analyses were performed as previously described. […] Fluorescent images were captured at the Neuroscience Translational Research Solution Center (Busan, South Korea) using an LSM 700 confocal microscope (Zeiss, Jena, Germany). Mitochondrial network morphology was further assessed using the FIJI/ImageJ software as described previously.
A commercially available ELISA kit (MyBioSource, San Diego, CA, USA) was used to measure plasma and brain HN levels. To measure the protein levels of HN, brain homogenates (100 μg protein/well) and 100 μL of plasma samples were loaded onto competitive ELISA plates according to the manufacturer's instructions. The absorbance was measured using a microplate reader (Molecular Devices, Sunnyvale, CA, USA) at a wavelength of 450 nm.

[5] = tested on: transgenic mouse model of AD; conditions: without altering Aβ production; cited from earlier work
Excerpt: Humanin is the first peptide representing a novel group of naturally occurring bioactive peptides encoded by the mitochondrial genome, termed MDPs. Since its discovery in 2001 [12], humanin has been proposed as a potential protective peptide for neurological disorders, cardiovascular diseases, and metabolic dysfunction. The central role of humanin in the protective response has been extensively studied in AD [13]. Maftei et al., using affinity mass spectrometry, identified that humanin can directly bind to amyloid β (Aβ), which subsequently disrupts the oligomerization of Aβ [57]. Further ...

[6] = wortmannin 1 μM pre-treatment, HN 10 μM, MPP+ 1 mM

## Cc1ccccc1-c1cc(=O)oc2cc(OC(C)C(=O)N(C)C)ccc12 (stereo not shown) [IMT1, reference compound]
SH-SY5Y cells [1]
  humanin transcripts induced by HN peptide: markedly attenuated humanin transcripts

## N#CC(=C(/N)Sc1ccccc1N)/C(C#N)=C(/N)Sc1ccccc1N [U0126]
[2]
  neuroprotective effect of HN against MPP+ neurotoxicity (MTT viability): did not alter cell viability

## fluorescein isothiocyanate-conjugated humanin [FITC-HN]
SH-SY5Y cells [3]; 24 h FITC-HN treatment, untreated cells show weak signal
  intracellular humanin signal (antibody staining): strong signal of intracellular humanin
SH-SY5Y cells [3]; 24 h after FITC-HN treatment, suggests degradation of the FITC-HN peptide
  intracellular FITC fluorescence signal: no detectable fluorescent signal
SH-SY5Y cells [3]; within 30 min of FITC-HN treatment, confocal immunofluorescence
  intracellular FITC fluorescence signal: strong intracellular fluorescence signal
[4]; cross-sections of trigeminal nerves after intranasal administration, transgenic PD mice
  FITC-HN distribution in trigeminal nerve endoneurium: diffuse to punctate in the perineural space of the endoneurium
[4]; cross-sections of trigeminal nerves, compared with endoneurium
  FITC-HN signal in trigeminal nerve perineurium region: more prominent FITC-HN signal
[4]; human α-Syn transgenic PD mice, ELISA of brain regions (CB, OB, ST, HIP, SN, CTX)
  duration of widespread brain distribution after intranasal administration: up to 1 h
[4]; human α-Syn-overexpressing transgenic PD mice, fluorescence imaging
  time after intranasal injection at which FITC-HN is detectable in midbrain (VTA, aqueduct): ≤ 30 min
[4]; within 30 minutes after intranasal treatment, GFAP staining
  FITC-HN localisation in brain parenchyma: found in microvascular endothelial cells surrounded by astrocytic endfeet

## COC[C@H]1OC(=O)c2coc3c2[C@@]1(C)C1=C(C3=O)[C@@H]2CCC(=O)[C@@]2(C)C[C@H]1OC(C)=O [wortmannin]
[2]
  neuroprotective effect of HN against MPP+ neurotoxicity (MTT viability): abolished the neuroprotective effect of HN
[2]; wortmannin 1 μM pre-treatment 1 h, HN 10 μM, 24 h, MPP+-exposed cells
  induction of intracellular humanin by HN treatment, western blot: significantly inhibited; also recorded: blocked the induction of HN expression
[2]; [6]
  HN-enhanced mitochondrial mass: significantly blocked the impact of HN on enhancing mitochondrial mass
  HN-promoted mitochondrial biogenesis, western blot: significantly blocked

## NC1(c2ccc(-c3nc4ccn5c(=O)[nH]nc5c4cc3-c3ccccc3)cc2)CCC1 [MK-2206]
[2]
  neuroprotective effect of HN against MPP+ neurotoxicity (MTT viability): abolished the neuroprotective effect of HN

## S14G-HN: a highly potent human derivative (MAPRGFSCLLLLTGEIDLPVKRRA; Humanin; UniProt Q8IVG9 1-24, looked up, variant S14G)
[5]
  total amyloid plaque burden in cerebellum, hippocampus and cortex: significantly reduced the total amyloid plaque burden
